From US10463644B2, “Uses of sesquiterpene lactone compounds and their derivatives in drugs preparation” (ACCENDATECH, priority 2013, dated 2019)
Where two headings read alike, the source gives them in different places.

Test system: normal cells
Assay: Survival rate of normal cells after test compound is added (flow cytometry, Annexin V-FITC/PI)
Type: cell-based
Conditions: 18 h
Source text: Take fresh or cryopreserved clinical specimen (acute myelogenous leukemia (AML, marker is CD34^+/CD38^+), chronic myelogenous leukemia (CML, Ph+/CD34+/CXCR4+), chronic lymphocytic leukemia (CLL,CD133+/CD19−/CD38−), skin cancer (CD34+), breast cancer (CD44+/CD24−/ESA+), ovarian cancer (CD44+/CD117+), brain tumor (CD133+) prostate cancer (CD44+/CD24−), head-neck squamous cell carcinoma (CD44+), laryngeal cancer (CD133+), pancreatic cancer (ESA+/CD44+/CD24+), retinoblastoma (ABCG2/ALDH1), Children hepatoblastoma (CD34+/THY1+/c-kit+), liver cancer (CD133+), malignant melanoma (CD133+), colorectal cancer (EpCAM^high/CD44+), colon adenocarcinoma (CD44^high), glioma (ABCG-2/BCRP1), gastrointestinal tumor (ABCG-2/BCRP1), nasopharynx cancer (ABCG2), brain glioma (Dlk-1/Pref-1), gastric cancer (CD45+), lung adenocarcinoma (Sca-1/CD45-/Pecam-/CD34+), lung cancer (CD133+CD34+CD44+)) of patient. Take the acute myelogenous leukemia as the example, conduct density gradient centrifugation with Ficoll and take out the middle mononuclear cells, re-suspend it with serum-free IMDM after centrifuged. Adjust the concentration of cells into 1×10^6/mL and lay 24-well plate with 1 mL in each well, and then treat 18 hours with the compound to select with corresponding concentration. Collect the cells and centrifuge them at 1500 rps for 8 minutes, re-suspend the precipitation with […], mark the antibodies related to leukemia stem cell, avoid light to incubate 30 minutes at room temperature and then centrifuge it at 1500 rps, then wash away the unbound antibody CD34^+CD38^+. Re-suspend it with 100 μl 1× Binding Buffer and add respectively 5 μl Annexin V-FITC and PI, then avoid light to incubate 15 minutes before add 200 μl 1× Binding Buffer, then use flow cytometry to examine the marked apoptosis within one hour.

[1] = read-out: Survival rate (%) All cells (Stem cells and ordinary cells)
[2] = read-out: Survival rate (%) Stem cells

Row | SMILES | viability at 10 µM [1] | viability at 10 µM [2] | viability at 20 µM [1] | viability at 20 µM [2]
1 | C=C1C(=O)O[C@@H]2[C@H]3C(C)=CC[C@@]34O[C@@]4(C)CC[C@@H]12 [Compound 50] | 92% | 90% | 91% | 89%
2 | CCOC(=O)[C@@H]1CCCN1C[C@@H]1C(=O)O[C@H]2[C@H]1CCC1(CC1)[C@@H]1CCC3(CC3)[C@H]21 [Compound 29] | 96% | 93% | 95% | 92%
3 | C=C1C(=O)O[C@@H]2[C@@H]3[C@@H](CC[C@@]3(C)O)C(=C)CC[C@@H]12 [Compound 48] | 92% | 91% | 91% | 89%
4 | C=C1C(=O)O[C@H]2[C@H]1CCC(C)=C1CC[C@@](C)(OC(=O)CCCc3cn(CCCCCCO)nn3)[C@@H]12 [Compound 21] | 95% | 94% | 94% | 92%
5 | C=C1C(=O)O[C@H]2[C@H]1CC[C@@](C)(OC)C1CC[C@@](C)(O)[C@@H]12 (stereo partly shown) [Compound 47] | 95% | 93% | 94% | 92%
6 | C=C1C(=O)O[C@@H]2[C@@H]3[C@@H](CCC34CC4)C3(CC[C@@H]12)CC3 [Compound 26] | 95% | 94% | 94% | 93%
7 | C=C1C(=O)O[C@H]2[C@H]1CC[C@]1(C)O[C@@]13CC[C@@](C)(O)[C@H]23 [Compound 24] | 93% | 92% | 92% | 90%
8 | CC1=C2CC[C@@](C)(O)[C@@H]2[C@H]2OC(=O)[C@@H](CN(C)C)[C@@H]2CC1 [Compound 23] | 96% | 93% | 95% | 92%
9 | C=C1CC[C@H]2C(=C)CC[C@H]3C(=C)C(=O)O[C@@H]3[C@@H]12 [Compound 25] | 93% | 89% | 91% | 88%
10 | [2H][C@@]1(CN(C)C)C(=O)O[C@@H]2[C@@H]3[C@@H](CCC34CC4)C3(CC[C@H]21)CC3 [Compound 46] | 95% | 94% | 94% | 92%
11 | CN(C)C[C@@H]1C(=O)O[C@H]2[C@H]1CCC1(CC1)[C@@H]1CCC3(CC3)[C@H]21 [Compound 27] | 91% | 88% | 89% | 81%
12 | CN(C)C[C@@H]1C(=O)O[C@H]2[C@H]1CCC1(CC1)[C@@H]1CCC3(CC3)[C@H]21 [Compound 35] | 95% | 91% | 94% | 90%
13 | C=C1C(=O)O[C@@H]2[C@@H]3[C@@H](CC[C@@]3(C)O)[C@](C)(O)CC[C@@H]12 [Compound 49] | 96% | 94% | 95% | 92%
